Assays:
luciferase (Luc) = test: Reporter assay: Hela cells transfected with human RORα1 expression vector and luciferase (Luc) reporter vector; Luc activity corrected with β-Gal activity; type: cell-based, firefly; design: key: β-Gal-corrected Luc activity; smaller = inhibition, larger = promotion; settings: human RORα1 expression vector, rev-DR2/TK-Luc reporter, about 1 day, smaller number = inhibitory, larger = promoting
Method: The reporter assay was used, in which Hela cells transfected with each of a pcDNA3 vector incorporated with the human RORα1 so that the gene can be expressed in animal cells as an expression vector, and a pGL3 promoter vector of which SV40 promoter was replaced with TK promoter as a luciferase expression reporter vector were used.
The Hela cells were placed at a density of 2×10^4 cells/0.1 mL/well on a 96-well cell culture plate (FALCON) by using 10% FBS-DMEM. On the next day, the human RORα1 expression vector, the reporter vector incorporated with 3 copies of rev-DR2 sequences and the HSV thymidine kinase promoter at a position upstream from the luciferase (Luc) gene, and a β-galactosidase (β-Gal) expression vector for control were introduced into the cells by using a transfection reagent (Fugene6, Roche). On the next day, the medium was replaced with 5% FBS-DMEM containing a test compound diluted at a prescribed concentration, after about 1 day, the cell supernatant was removed, then the cells were lysed (Passive Lysis buffer, Promega), the Luc substrate (PicaGene, Toyo Ink) was added to a part of the lysed cells, and the activity of produced Luc was measured as luminescence intensity. Further, the β-Gal activity was measured as intensity of fluorescence generated when 4-methylumbelliferyl β-D-galactoside was added as a substrate, and the activity of Luc corrected for the transfection efficiency with the β-Gal activity was used as the index for evaluation. A smaller number indicates inhibitory action, and a larger number indicates promoting action.

| Compound | activity of Luc corrected for the transfection efficiency with the β-Gal activity (luciferase (Luc); test compound 0.01 μM) | activity of Luc corrected for the transfection efficiency with the β-Gal activity (luciferase (Luc); test compound 0.1 μM) | activity of Luc corrected for the transfection efficiency with the β-Gal activity (luciferase (Luc); test compound 1 μM) | activity of Luc corrected for the transfection efficiency with the β-Gal activity (luciferase (Luc); test compound 10 μM) | melting point [°C] |
| --- | --- | --- | --- | --- | --- |
| CN(C)c1ccc2c(c1)C(=O)N(c1ccc(OCC(=O)O)cc1)C2 [Compound 28, [4-(6-dimethylamino-1-oxo-1,3-dihydro-isoindol-2-yl)-phenoxy]-acetic acid] | 1.1 | 0.8 | 0.2 | 0.1 | 206 to 208 |
| O=C(O)CCCc1ccc(N2Cc3ccc(F)cc3C2=O)cc1 [Compound 29, 4-[4-(6-fluoro-1-oxo-1,3-dihydro-isoindol-2-yl)-phenyl]-butyric acid] | 0.5 | 0.2 | 0.0 | 0.0 | 172 to 173 |
| Cc1ccc([N+](=O)[O-])c(C(=O)Nc2ccc(CCCC(=O)O)cc2)c1 [Compound 40, 4-[4-(5-methyl-2-nitro-benzoylamino)-phenyl]-butyric acid] | 0.8 | 0.9 | 0.8 | 0.8 | 152 to 153 |

Source: patent US8722723B2, “Aromatic amide derivative” (Research Foundation Itsuu Laboratory, priority 2008, dated 2014)
